Source: the CheMixHub viscosity set

Experiment: xn = mol fraction of the nth substance listed

C=C(C)C(=O)OC + CCC(C)O
viscosity [mPa·s], 101.3 kPa
Settings | 298.15 K | 308.15 K
x1 = 0.0597 | 2.462 | 2.057
x1 = 0.1551 | 1.779 | 1.481
x1 = 0.255 | 1.32 | 1.097
x1 = 0.3562 | 1.022 | 0.848
x1 = 0.4561 | 0.83 | 0.688
x1 = 0.5021 | 0.766 | 0.635
x1 = 0.5571 | 0.704 | 0.584
x1 = 0.6562 | 0.626 | 0.52
x1 = 0.7557 | 0.581 | 0.484
x1 = 0.8552 | 0.564 | 0.472
x1 = 0.9549 | 0.572 | 0.481

Cc1ccc(NC(=O)NC(C)CCCC(C)C)cc1NC(=O)NC(C)CCCC(C)C (stereo not given) + CCCCC
Settings | viscosity [mPa·s]
293.15 K, 100 kPa, x1 = 0.0002 | 461

C=C(C)C(=O)OC + CCCCCC
303.15 K, 101 kPa
Settings | viscosity [mPa·s]
x1 = 0.1029 | 0.2962
x1 = 0.2077 | 0.3069
x1 = 0.4005 | 0.3338
x1 = 0.5052 | 0.3523
x1 = 0.6046 | 0.3758
x1 = 0.7056 | 0.4934

CCCCCCCCCCCC(=O)[O-].[Na+] + CCCCCCCC(=O)O
100 kPa, x1 = 0.2
Settings | viscosity [mPa·s]
293.15 K | 60.29
298.15 K | 47.97
303.15 K | 38.68
308.15 K | 31.58
313.15 K | 26.09
318.15 K | 21.79
323.15 K | 18.38

CCCCCCCCCCCC(=O)[O-].[Na+] + CCCCCCCCCC(=O)O
101 kPa, x1 = 0.2
Settings | viscosity [mPa·s]
293.15 K | 76.59
298.15 K | 60.48
303.15 K | 48.43
308.15 K | 39.29
313.15 K | 32.27
318.15 K | 26.79
323.15 K | 22.48

C=C(C)C(=O)OC + CCCCCCCO
viscosity [mPa·s], 101.3 kPa
Settings | 298.15 K | 308.15 K
x1 = 0.0526 | 4.782 | 3.544
x1 = 0.1258 | 3.728 | 2.828
x1 = 0.2484 | 2.538 | 1.991
x1 = 0.3455 | 1.926 | 1.546
x1 = 0.4471 | 1.483 | 1.213
x1 = 0.5009 | 1.307 | 1.078
x1 = 0.5615 | 1.143 | 0.95
x1 = 0.6456 | 0.965 | 0.81
x1 = 0.7444 | 0.811 | 0.685
x1 = 0.8476 | 0.695 | 0.588
x1 = 0.9438 | 0.618 | 0.522

C=C(C)C(=O)OC + CCCCCO
viscosity [mPa·s], 101.3 kPa
Settings | 298.15 K | 308.15 K
x1 = 0.0449 | 3.018 | 2.317
x1 = 0.1463 | 2.195 | 1.733
x1 = 0.2463 | 1.658 | 1.34
x1 = 0.3476 | 1.29 | 1.064
x1 = 0.4311 | 1.077 | 0.9
x1 = 0.5019 | 0.941 | 0.793
x1 = 0.5439 | 0.876 | 0.74
x1 = 0.6459 | 0.753 | 0.641
x1 = 0.7431 | 0.674 | 0.575
x1 = 0.8477 | 0.619 | 0.527
x1 = 0.9445 | 0.591 | 0.501

CC(=O)Oc1ccccc1 + CCCCCOC(C)=O
Settings | viscosity [mPa·s]
298.15 K, 101 kPa, x1 = 0.5 | 0.9319

COc1ccccc1C + CCCCCOC(C)=O
Settings | viscosity [mPa·s]
298.15 K, 101 kPa, x1 = 0.5 | 0.8659

C=C(C)C(=O)OC + CCCCO
viscosity [mPa·s], 101.3 kPa
Settings | 298.15 K | 308.15 K
x1 = 0.05 | 2.22 | 1.726
x1 = 0.1489 | 1.7 | 1.355
x1 = 0.2479 | 1.341 | 1.092
x1 = 0.3487 | 1.086 | 0.9
x1 = 0.4499 | 0.906 | 0.761
x1 = 0.5024 | 0.835 | 0.705
x1 = 0.5479 | 0.783 | 0.664
x1 = 0.6441 | 0.699 | 0.596
x1 = 0.7437 | 0.639 | 0.546
x1 = 0.8469 | 0.602 | 0.513
x1 = 0.9453 | 0.585 | 0.496

C=C(C)C(=O)OC + CCCCOCCCC
viscosity [mPa·s], 101.3 kPa
Settings | 298.15 K | 308.15 K
x1 = 0.0446 | 0.633 | 0.581
x1 = 0.1479 | 0.616 | 0.561
x1 = 0.2442 | 0.603 | 0.546
x1 = 0.3388 | 0.593 | 0.532
x1 = 0.4495 | 0.584 | 0.519
x1 = 0.4924 | 0.581 | 0.515
x1 = 0.5489 | 0.579 | 0.51
x1 = 0.6504 | 0.576 | 0.502
x1 = 0.7489 | 0.575 | 0.496
x1 = 0.8501 | 0.577 | 0.492
x1 = 0.9428 | 0.581 | 0.49

C=C(C)C(=O)OC + CCCCOCCO
viscosity [mPa·s], 101.3 kPa
Settings | 298.15 K | 308.15 K
x1 = 0.0589 | 2.45 | 1.998
x1 = 0.1467 | 2.063 | 1.704
x1 = 0.2571 | 1.682 | 1.408
x1 = 0.3556 | 1.416 | 1.196
x1 = 0.4555 | 1.201 | 1.021
x1 = 0.5016 | 1.117 | 0.952
x1 = 0.5559 | 1.028 | 0.878
x1 = 0.6734 | 0.868 | 0.742
x1 = 0.7556 | 0.778 | 0.664
x1 = 0.857 | 0.686 | 0.583
x1 = 0.9547 | 0.613 | 0.518

CCCCOP(=O)(O)OCCCC + CCCN
297 K, 101 kPa
Settings | viscosity [mPa·s]
x2 = 0.15 | 60
x2 = 0.3 | 100
x2 = 0.48 | 1370
x2 = 0.5 | 1700
x2 = 0.66 | 170

CCCCCCCCCCCCCCCCCCO + CCCO
298.15 K, 101 kPa
Settings | viscosity [mPa·s]
x1 = 0.0016 | 2.071
x1 = 0.0028 | 2.011
x1 = 0.0106 | 2.164
x1 = 0.0212 | 2.332

C[N+](C)(C)CCC[N+]1(C)CCCCC1.N#C[N-]C#N.N#C[N-]C#N + CCO
viscosity [mPa·s], 100 kPa
Settings | 293.15 K | 303.15 K | 323.15 K
x1 = 0.5002 | 280.5 | – | 70.55
x1 = 0.7998 | – | 828.4 | –

CCCC[P+](C)(CCCC)CCCC.COS(=O)(=O)[O-] + CN1CCCC1=O
101 kPa
Settings | viscosity [mPa·s]
293.15 K, x1 = 0.2318 | 67.31
293.15 K, x1 = 0.6014 | 285.4
293.15 K, x1 = 0.7129 | 437.9
293.15 K, x1 = 0.8086 | 533
293.15 K, x1 = 0.9022 | 633.1
293.15 K, x1 = 0.9468 | 676.8
298.15 K, x1 = 0.2318 | 38.93
298.15 K, x1 = 0.2971 | 50.57
298.15 K, x1 = 0.3764 | 80.09
298.15 K, x1 = 0.7129 | 294.9
298.15 K, x1 = 0.8086 | 370.8
298.15 K, x1 = 0.8515 | 411.3
298.15 K, x1 = 0.9022 | 451.1
298.15 K, x1 = 0.9468 | 487
303.15 K, x1 = 0.0914 | 4.938
303.15 K, x1 = 0.1311 | 7.781
303.15 K, x1 = 0.2971 | 25.25
303.15 K, x1 = 0.3764 | 40.12
303.15 K, x1 = 0.4752 | 65.25
303.15 K, x1 = 0.8086 | 262.4
303.15 K, x1 = 0.8515 | 295.9
303.15 K, x1 = 0.9022 | 328.3
303.15 K, x1 = 0.9468 | 353.5
308.15 K, x1 = 0.0914 | 2.514
308.15 K, x1 = 0.1311 | 3.429
308.15 K, x1 = 0.1773 | 6.412
308.15 K, x1 = 0.2318 | 8.924
308.15 K, x1 = 0.4752 | 30.51
308.15 K, x1 = 0.6014 | 66.52
308.15 K, x1 = 0.9468 | 268.4
313.15 K, x1 = 0.1311 | 3.214
313.15 K, x1 = 0.1773 | 4.514
313.15 K, x1 = 0.2318 | 6.789
313.15 K, x1 = 0.7129 | 95.25
318.15 K, x1 = 0.1311 | 4.512
318.15 K, x1 = 0.1773 | 6.412
318.15 K, x1 = 0.2318 | 7.124
318.15 K, x1 = 0.6014 | 31.78
318.15 K, x1 = 0.7129 | 72.62
323.15 K, x1 = 0.0914 | 2.515
323.15 K, x1 = 0.1311 | 3.845
323.15 K, x1 = 0.1773 | 5.672
323.15 K, x1 = 0.7129 | 59.09
323.15 K, x1 = 0.8086 | 88.33

CCCC[P+](C)(CCCC)CCCC.COS(=O)(=O)[O-] + CN(C)C=O
100 kPa
Settings | viscosity [mPa·s]
293.15 K, x1 = 0.4272 | 67.15
303.15 K, x1 = 0.8837 | 286.5
318.15 K, x1 = 0.6717 | 59.15
323.15 K, x1 = 0.7768 | 84.15
